In patent US12655101B2, “Small molecules with antibacterial activity” (NEW MEXICO TECH UNIVERSITY RESEARCH PARK CORPORATION, priority 2021, dated 2026):
pIC50: −log10 of the molar value. ≈ marks a conversion by molar mass, not a printed value. Like-named read-outs stand apart in the source and are kept apart here.

Key:
Assay type in all cases: cell-based
[1] = system: A. baumannii ATCC BAA-1797; experiment: MIC on A. baumannii ATCC BAA-1797; details: Acinetobacter baumannii
In short: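 Cells adjusted to ~5×10^5 CFU/mL in MHB or MHB with 10%, 20% or 40% FBS, treated with two-fold serial compound dilutions in glass tubes and incubated 18 hours at 37° C. Growth read visually or by MTT (10% v/v, 10 min) with OD at 595 nm.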

[2] = system: A. baumannii ATCC 15151; experiment: ATP decrease (luciferase); details: 1xMIC and 2xMIC; 25 minutes
[3] = system: A. baumannii ATCC 15151; experiment: microbe, parasite or virus in culture; details: for change of MIC from Day 0 to Day 30 / development of resistance: 30 days; for MIC: Acinetobacter baumannii; for Evolution of resistance?: Table 7
Procedure: A. baumannii ATCC 15151 was grown from a glycerol stock by placing a small volume of cells onto a MHA plate. The MHA plate was incubated overnight at 37° C. A single colony was subsequently used to inoculate MHB to obtain a bacterial broth suspension. The MHB broth suspension was grown at 37° C. on a rotary shaking incubator (100 rpm) for 12 hours. The bacterial cell concentration was adjusted to ˜5×10^5 CFU/mL in MHB or MHB using OD at 595 nm. […] (PAO) and the negative control was non-treated cells. All treatments were performed in triplicate. The plate was incubated for 20 hours at 37° C. in a Tecan plate reader, where the cells were shaken every hour and an OD reading was taken at 600 nm. […] These cells were again plated in a 96-well plate and incubated as before. This was performed a total of 30 days.

[4] = system: drug-resistant A. baumannii strains obtained from the CDC and Prevention Antimicrobial Isolate Bank; experiment: MIC on drug-resistant A. baumannii strains from the CDC Antimicrobial Isolate Bank; details: Acinetobacter baumannii
[5] = system: A. baumannii; experiment: Synergy with PME (Table 7)
[6] = system: HeLa cells; experiment: HeLa cell toxicity IC50 (MTT); details: Homo sapiens
[7] = system: A. baumannii ATCC 1515; experiment: Membrane depolarization detected by DiOC2(3); details: 1xMIC; for cell membrane depolarization: 20 μM CCCP, 25 minutes; for cell membrane depolarization over time: 10, 20, 30, and 50 minutes
[8] = system: A. baumannii ATCC BAA-1797; experiment: Colony counts of A. baumannii ATCC BAA-1797 treated with 4xMIC for 16 hours; details: for kill of A. baumannii ATCC BAA-1797: 4xMIC (24 μM Compound 25, 24 μM Compound 26, 100 μM Compound 27, 48 μM Compound 14, 100 μM Compound 15)
[9] = system: RecA-GFP fusion protein in E. coli MG1655; experiment: Inhibition of norfloxacin-triggered RecA-GFP induction in E. coli MG1655
Procedure: An increase in DNA damage-induced RecA protein expression is required for identification and repair of DNA lesions. LexA-repressed transcription of a norfloxacin-triggered SOS response was measured by detecting an increase in RecA-GFP fusion protein fluorescence in an E. coli recombinant model. The compounds of the disclosure inhibited RecA-GFP induction and presumably, the concurrent SOS response. Inhibition of RecA-GFP expression correlated with an increase in cell death, most likely as a result of ALD activation. Sub-potent concentrations of Polymixin E were used to facilitate entry of the compounds into cells.
E. coli MG1655 was grown from a glycerol stock by placing a small volume of cells onto a MHA plate. The MHA plate was incubated overnight at 37° C. A single colony was subsequently used to inoculate MHB+10 μg/mL kanamycin to obtain a bacterial broth suspension. This was grown in at 37° C. on a rotary shaking incubator (100 rpm) for 12 hours. The bacterial cell concentration was adjusted to ˜5×10^5 colony forming units per milliliter (CFU/mL) in MHB using optical density at 595 nm. Treated cells with polymyxin E (PME) or norfloxacin (in μg/ml) at indicated concentrations for 30 minutes at 37° C. and then added a compound of the disclosure at indicated micromolar concentrations. Incubated for 3.5 hours at 37° C. Cell samples were read on the flow cytometer to detect (green fluorescent) RLU RecA expression and/or shutdown.
E. coli MG1655 was grown from a glycerol stock by placing a small volume of cells onto a MHA plate. The MHA plate was incubated overnight at 37° C. A single colony was subsequently used to inoculate MHB+10 μg/mL kanamycin to obtain a bacterial broth suspension. The MHB broth suspension was grown at 37° C. on a rotary shaking incubator (100 rpm) for 12 hours. The bacterial cell concentration was adjusted to ˜5×10^5 CFU/mL in MHB using OD at 595 nm.
Cells were treated with 0.03 μg/mL and 0.06 μg/mL norfloxacin for 30 minutes at 37° C. Then, 100 μM of the compounds were added. The cells were incubated for 3.5 hours at 37° C. 200 μL aliquots were removed and read by a flow cytometer to detect RecA production and/or shutdown. The cells were incubated for an additional 18 hours at 37° C. to assess overall toxicity.

[10] = ATCC 1797 / ATCC BAA-1797, 0% FBS, read-out: MIC (μM) in MDR A. baumannii ATCC 1797 0% FBS
[11] = ATCC 1797 / ATCC BAA-1797, 10% FBS, read-out: MIC (μM) in MDR A. baumannii ATCC 1797 10% FBS
[12] = ATCC 1797 / ATCC BAA-1797, read-out: MIC (μM) in MDR A. baumannii ATCC 1797 40% FBS, 40% FBS
[13] = ATCCBAA1797, 18 h, read-out: MIC in the presence of 40% FBS, A. baumannii ATCC BAA-1797, 40% FBS
[14] = ATCCBAA1797, Table 7, 10% FBS, read-out: MIC in 10% FBS
[15] = ATCCBAA1797, Table 7, no serum stated, read-out: MIC
[16] = ATCCBAA1797, read-out: MIC in 40% FBS (μM), Table 7, 40% FBS
[17] = ATCC15151, 0 h, read-out: Starting MIC Day 0, A. baumannii ATCC 15151, Day 0
[18] = ATCC15151, read-out: Final MIC Day 30, A. baumannii ATCC 15151, Day 30
[19] = 18 h, A. baumannii CDC AR033, 18 hours, read-out: MIC values for AR033
[20] = HeLa, read-out: IC50 on HeLa in 40% FBS, Table 7
[21] = read-out: IC50 40% FBS, HeLa cells
[22] = ATCCBAA1797, A. baumannii ATCC BAA-1797, absence of serum, read-out: MIC in the absence of serum
[23] = 18 h, A. baumannii CDC AR083, 18 hours, read-out: MIC values for AR083

Compound | MIC [1, 10] | MIC [1, 11] | MIC [1, 12] | MIC [1, 13] | MIC [1, 14] | MIC [1, 15] | MIC [1, 16] | ATP decrease [2] | development of resistance [3] | MIC [3, 17] | MIC [3, 18] | Evolution of resistance? [3] | MIC [4, 19] | Synergize with PME? [5] | pIC50 [6, 20] | pIC50 [6, 21] | cell membrane depolarization [7] | Kill at 4X MIC at 16 hours [8] | kill of A. baumannii ATCC BAA-1797 [8] | RecA attenuation with norflox on E. coli [9] | other results
Nc1cccc2[nH]cc(/C=N/Nc3ccc(Cl)cc3)c12 [Compound 14, (E)-3-((2-(4-chlorophenyl)hydrazineylidene)methyl)-1H-indol-4-amine] | 6 µM (≈ 1.71 µg/mL) | > 100 µM | 50 µM (≈ 14.2 µg/mL) | 50 µM | > 100 µM | 6 µM (≈ 1.71 µg/mL) | 50 µM (≈ 14.2 µg/mL) | caused a decrease in ATP | significant resistance | 12.5 µM (≈ 3.56 µg/mL) | ≥ 100 µM | Yes; >6-fold | 25 µM (≈ 7.12 µg/mL) | Yes, at 4 μM | 3.74 | 3.74 | depolarized the cell membrane | 5-logs | ~5 orders of magnitude | Yes | MIC ([1]; ATCCBAA1797, read-out: MIC in the absence of serum): 12.5 µM (≈ 3.56 µg/mL); MIC ([1]; ATCCBAA1797, read-out: MIC in the presence of 40% human serum, A. baumannii ATCC BAA-1797, 40% human serum): > 100 µM; change of MIC from Day 0 to Day 30 [3]: 8 fold; MIC ([4]; 18 h, read-out: MIC values for AR083): 12.5 µM (≈ 3.56 µg/mL)
Clc1ccc(N/N=C/c2c[nH]c3ccc(Br)cc23)cc1 [Compound 15, (E)-5-bromo-3-((2-(4-chlorophenyl)hydrazineylidene)methyl)-1H-indole] | 12.5 µM (≈ 4.36 µg/mL) | > 100 µM | 50 µM (≈ 17.4 µg/mL) | 100 µM | > 100 µM | 12.5 µM (≈ 4.36 µg/mL) | > 100 µM | caused a decrease in ATP |  |  |  | Yes; >4-fold | 25 µM (≈ 8.72 µg/mL) |  | 4.17 | 4.17 |  | 6-logs | ~5 orders of magnitude | Yes | MIC [1, 22]: 6 µM (≈ 2.09 µg/mL); MIC [4, 23]: 12.5 µM (≈ 4.36 µg/mL); cell membrane depolarization over time [7]: caused the most depolarization
Brc1ccc(N/N=C/c2c[nH]c3cccc(OCc4ccccc4)c23)cc1.Cl [Compound 25, (E)-2-((4-(benzyloxy)-1H-indol-3-yl)methylene)-1-(4-bromophenyl)hydrazin-1-ium chloride] | 6 µM | > 100 µM | 50 µM | < 50 µM | > 100 µM | 6 µM | 50 µM | caused a decrease in ATP | had not developed resistance | 6 µM | 6 µM | No | 6 µM | Yes, at 1 μM | 4.00 | 4.00 | depolarized the cell membrane | 5-logs | ~5 orders of magnitude | Yes | MIC [1, 22]: 6 µM; MIC [4, 23]: < 3 µM; MIC ([4]; AR bank # 33, SAMN04014874, read-out: Compound 25 MIC): 6 µM; MIC ([4]; AR bank # 35, SAMN04014876, read-out: Compound 25 MIC): 12.5 µM; MIC ([4]; AR bank # 36, SAMN04014877, read-out: Compound 25 MIC): 12.5 µM; MIC ([4]; AR bank # 37, SAMN04014878, read-out: Compound 25 MIC): 6 µM; MIC ([4]; AR bank # 45, SAMN04014886, read-out: Compound 25 MIC): 6 µM; MIC ([4]; AR bank # 52, SAMN04014893, read-out: Compound 25 MIC): 6 µM; MIC ([4]; AR bank # 56, SAMN04014897, read-out: Compound 25 MIC): 3 µM; MIC ([4]; AR bank # 63, SAMN04014904, read-out: Compound 25 MIC): 3 µM; MIC ([4]; AR bank # 70, SAMN04014911, read-out: Compound 25 MIC): 3 µM; MIC ([4]; AR bank # 78, SAMN04014919, read-out: Compound 25 MIC): 6 µM; MIC ([4]; AR bank # 83, SAMN04014924, read-out: Compound 25 MIC): 3 µM; MIC ([4]; AR bank # 88, SAMN04014929, read-out: Compound 25 MIC): 6 µM; MIC ([4]; AR bank # 101, SAMN04014942, read-out: Compound 25 MIC): 6 µM; MIC ([4]; AR bank # 102, SAMN04014943, read-out: Compound 25 MIC): 6 µM; cell membrane depolarization over time [7]: depolarized the membrane the least
Cl.Clc1ccc(N/N=C/c2c[nH]c3cccc(OCc4ccccc4)c23)cc1 [Compound 26, (E)-2-((4-(benzyloxy)-1H-indol-3-yl)methylene)-1-(4-chlorophenyl)hydrazin-1-ium] | 6 µM | > 100 µM | 100 µM | 50 µM | > 100 µM | 6 µM | 100 µM | caused a decrease in ATP | slight resistance | 6 µM | 12 µM | Yes; 2-fold | 6 µM | Yes, at 1 μM | 4.24 | 4.24 | depolarized the cell membrane | 5-logs | ~5 orders of magnitude | Yes | MIC ([1]; ATCCBAA1797, A. baumannii ATCC BAA-1797, 10% FBS, read-out: MIC in the presence of 10% FBS): > 100 µM; MIC [1, 22]: 5 µM; change of MIC from Day 0 to Day 30 [3]: 2 fold; MIC [4, 23]: 6 µM
